Measurements from ChEMBL document CHEMBL5233281, “Design, synthesis and biological evaluation of novel 1,3,4,9-tetrahydropyrano[3,4-b]indoles as potential treatment of triple negative breast cancer by suppressing PI3K/AKT/mTOR pathway” (Bioorg Med Chem, 2021).
pIC50: −log10 of the molar value. Calls of active or inactive are those of the source. The calls are words filed in the database; no cut-off is given here.

Legend:
A549 = experiment: Antiproliferative activity against human A549 cells assessed as inhibition of cell growth incubated for 72 hrs by CCK8 assay; type: functional, cell-based; details: A549, 72 h
BGC-823 = experiment: Antiproliferative activity against human BGC-823 cells assessed as inhibition of cell growth incubated for 72 hrs by CCK8 assay; type: functional, cell-based; details: BGC-823, 72 h
MCF7 = experiment: Antiproliferative activity against human MCF7 cells assessed as inhibition of cell growth incubated for 72 hrs by CCK8 assay; type: functional, cell-based; details: MCF7, 72 h
[1] = Antiproliferative activity against human MCF-10A cells assessed as inhibition of cell growth incubated for 72 hrs by CCK8 assay; type: toxicity, cell-based
[2] = Selectivity index, ratio of IC50 for antiproliferative activity against human MCF-10A cells to IC50 for antiproliferative activity against human MDA-MB-231 cells; type: toxicity, cell-based; details: MCF-10A cells and MDA-MB-231 cells, read-out: Ratio IC50
MDA-MB-231 [3] = experiment: Antiproliferative activity against human MDA-MB-231 cells assessed as inhibition of cell growth at 1 to 4 uM by CCK8 assay; type: functional, cell-based; details: dose 1-4 µM, time 24-96 hrs, TDE = time-dependent effect
MDA-MB-231 [4] = experiment: Induction of cell cycle arrest in human MDA-MB-231 cells assessed as accumulation of cells at G0/G1 phase at 1 uM incubated for 48 hrs by PI staining based flow cytometry (reference value: 48.33%); type: functional
MDA-MB-231 [5] = experiment: Induction of cell cycle arrest in human MDA-MB-231 cells assessed as accumulation of cells at G0/G1 phase at 2 uM incubated for 48 hrs by PI staining based flow cytometry (reference value: 48.33%); type: functional
MDA-MB-231 [6] = experiment: Induction of cell cycle arrest in human MDA-MB-231 cells assessed as accumulation of cells at G0/G1 phase at 4 uM incubated for 48 hrs by PI staining based flow cytometry (reference value: 48.33%); type: functional
MDA-MB-231 [7] = experiment: Induction of cell cycle arrest in human MDA-MB-231 cells assessed as downregulation of CDK4 protein expression at 1 to 4 uM incubated for 48 hrs by western blot analysis; type: functional, cell-based; details: dose 1-4 µM
MDA-MB-231 [8] = experiment: Induction of cell cycle arrest in human MDA-MB-231 cells assessed as downregulation of Cyclin D1 protein expression at 1 to 4 uM incubated for 48 hrs by western blot analysis; type: functional, cell-based; details: dose 1-4 µM
MDA-MB-231 [9] = experiment: Induction of cell cycle arrest in human MDA-MB-231 cells assessed as upregulation of p21 protein expression at 1 to 4 uM incubated for 48 hrs by western blot analysis; type: functional, cell-based; details: dose 1-4 µM
MDA-MB-231 [10] = experiment: Induction of apoptosis in human MDA-MB-231 cells assessed as increase in apoptotic cells at 1 uM incubated for 48 hrs by AnnexinV-FITC/PI staining based flow cytometry (reference value: 5.24%); type: functional
MDA-MB-231 [11] = experiment: Induction of apoptosis in human MDA-MB-231 cells assessed as increase in apoptotic cells at 2 uM incubated for 48 hrs by AnnexinV-FITC/PI staining based flow cytometry (reference value: 5.24%); type: functional
MDA-MB-231 [12] = experiment: Induction of apoptosis in human MDA-MB-231 cells assessed as increase in apoptotic cells at 2 uM incubated for 72 hrs by AnnexinV-FITC/PI staining based flow cytometry (reference value: 5.24%); type: functional
MDA-MB-231 [13] = experiment: Induction of apoptosis in human MDA-MB-231 cells assessed as decrease in Bcl-2 protein expression measured after 48 hrs by western blot analysis; type: functional, cell-based; details: dose 1-4 µM
MDA-MB-231 [14] = experiment: Induction of apoptosis in human MDA-MB-231 cells assessed as increase in ratio of Bax to Bcl-2 protein expression measured after 48 hrs by western blot analysis; type: functional, cell-based; details: dose 1-4 µM
MDA-MB-231 [15] = experiment: Induction of apoptosis in human MDA-MB-231 cells assessed as increase in cleaved caspase-9 protein expression at 1 to 4 uM incubated for 48 hrs by western blot analysis; type: functional, cell-based; details: dose 1-4 µM
MDA-MB-231 [16] = experiment: Induction of apoptosis in human MDA-MB-231 cells assessed as increase in cleaved caspase-8 protein expression at 1 to 4 uM incubated for 48 hrs by western blot analysis; type: functional, cell-based; details: dose 1-4 µM
MDA-MB-231 [17] = experiment: Induction of apoptosis in human MDA-MB-231 cells assessed as increase in cleaved caspase-3 protein expression at 1 to 4 uM incubated for 48 hrs by western blot analysis; type: functional, cell-based; details: dose 1-4 µM
MDA-MB-231 [18] = experiment: Induction of mitochondrial membrane potential depolarization in human MDA-MB-231 cells assessed as decrease in ratio of red to green fluorescence intensity at 1 to 4 uM incubated for 24 hrs by JC-1 staining based flow cytometry; type: functional, cell-based; details: dose 1-4 µM
MDA-MB-231 [19] = experiment: Induction of reactive oxygen species generation in human MDA-MB-231 cells incubated for 24 hrs by DCFH-DA staining based flow cytometry; type: functional, cell-based; details: dose 1-4 µM
MDA-MB-231 [20] = experiment: Induction of reactive oxygen species generation in human MDA-MB-231 cells at 1 uM incubated for 24 hrs by DCFH-DA staining based flow cytometry; type: functional, cell-based
MDA-MB-231 [21] = experiment: Induction of reactive oxygen species generation in human MDA-MB-231 cells at 2 uM incubated for 24 hrs by DCFH-DA staining based flow cytometry relative to control; type: functional
MDA-MB-231 [22] = experiment: Induction of reactive oxygen species generation in human MDA-MB-231 cells at 4 uM incubated for 24 hrs by DCFH-DA staining based flow cytometry; type: functional, cell-based
MDA-MB-231 [23] = experiment: Increase in intracellular Ca2+ level in human MDA-MB-231 cells at 1 to 4 uM incubated for 48 hrs by Fluo-4AM dye based flow cytometry; type: functional, cell-based; details: dose 1-4 µM
MDA-MB-231 [24] = experiment: Downregulation of mTOR protein expression in human MDA-MB-231 cells incubated for 48 hrs by western blot analysis; type: functional, cell-based; details: dose 1-4 µM
[25] = Inhibition of PI3K/Akt/mTOR signaling in human MDA-MB-231 cells assessed as reduction in Akt phosphorylation at Ser473 residue incubated for 48 hrs by western blot analysis; type: cell-based; details: dose 1-4 µM
[26] = Inhibition of PI3K/Akt/mTOR signaling in human MDA-MB-231 cells assessed as reduction in Akt phosphorylation at Thr308 residue incubated for 48 hrs by western blot analysis; type: cell-based; details: dose 1-4 µM
[27] = Inhibition of PI3K/Akt/mTOR signaling in human MDA-MB-231 cells assessed as reduction in mTOR phosphorylation at Ser2481 residue incubated for 48 hrs by western blot analysis; type: cell-based; details: dose 1-4 µM
MDA-MB-231 [28] = experiment: Downregulation of PI3K protein expression in human MDA-MB-231 cells at 2 uM incubated for 72 hrs in presence of IGF-1 by western blot analysis; type: functional, cell-based
MDA-MB-231 [29] = experiment: Downregulation of mTOR protein expression in human MDA-MB-231 cells at 2 uM incubated for 72 hrs in presence of IGF-1 by western blot analysis; type: functional, cell-based
[30] = Inhibition of PI3K/Akt/mTOR signaling in human MDA-MB-231 cells assessed as reduction in Akt phosphorylation at Ser473 residue at 2 uM incubated for 72 hrs in presence of IGF-1 by western blot analysis; type: cell-based
[31] = Inhibition of PI3K/Akt/mTOR signaling in human MDA-MB-231 cells assessed as reduction in mTOR phosphorylation at Ser2448 residue at 2 uM incubated for 72 hrs by western blot analysis; type: cell-based
MDA-MB-231 [32] = experiment: Induction of apoptosis in human MDA-MB-231 cells assessed as increase in apoptotic cells at 2 uM incubated for 72 hrs in presence of IGF-1 by AnnexinV-FITC/PI staining based flow cytometry; type: functional

Fc1cc(F)cc(C2OCCc3c2[nH]c2ccccc32)c1 (stereo not given)
pIC50 (A549): 4.83 | pIC50 (BGC-823): 5.04 | pIC50 (MCF7): 5.10 | IC50 at 72 h [1]: 24.6 µM | selectivity ratio [2]: 10.8 | Activity (MDA-MB-231 [3]): Tde | Activity (MDA-MB-231 [4]): 54.33% | Activity (MDA-MB-231 [5]): 64% | Activity (MDA-MB-231 [6]): 66.67% | Activity (MDA-MB-231 [7]): Active | Activity (MDA-MB-231 [8]): Active | Activity (MDA-MB-231 [9]): Active | Activity (MDA-MB-231 [10]): 16.77% | Activity (MDA-MB-231 [11]): 22.17% | Activity (MDA-MB-231 [12]): 31.34% | Activity (MDA-MB-231 [13]): Dose-Dependent Effect | Activity (MDA-MB-231 [14]): Dose-Dependent Effect | Activity (MDA-MB-231 [15]): Active | Activity (MDA-MB-231 [16]): Active | Activity (MDA-MB-231 [17]): Active | Activity (MDA-MB-231 [18]): Active | Activity (MDA-MB-231 [19]): Dose-Dependent Effect | Activity (MDA-MB-231 [20]): inactive | fold change (FC) (MDA-MB-231 [21]): 1.73 | Activity (MDA-MB-231 [22]): Active | Activity (MDA-MB-231 [23]): Active | inhibition (MDA-MB-231 [24]): Dose-Dependent Effect | inhibition [25]: Dose-Dependent Effect | inhibition [26]: Dose-Dependent Effect | inhibition [27]: Dose-Dependent Effect | inhibition (MDA-MB-231 [28]): inactive | inhibition (MDA-MB-231 [29]): inactive | inhibition [30]: inactive | inhibition [31]: inactive | Activity (MDA-MB-231 [32]): 18.5%
